Results published in article PMC8803738, “Impact of the mouse model and molar amount of injected ligand on the tissue distribution profile of PSMA radioligands” (European Journal of Nuclear Medicine and Molecular Imaging, 2021).
Read-outs that look alike come from different tables or passages of the source.

How the values were obtained:
[1] = test system: PC-3 PIP/flu or LNCaP tumor-bearing mice; test: Biodistribution, comparison or ranges over both PC-3 PIP and LNCaP tumor mouse models; format: in vivo
Procedure: (§1) Male BALB/c nude mice were subcutaneously inoculated on the right shoulder with LNCaP tumor cells (5 × 10^6 cells in PBS mixed with Matrigel (20 mg/mL, BD Biosciences) at a ratio of 3 to 1 (v/v) to a total volume of 200 μL per mouse). Biodistribution and SPECT/CT imaging studies with both tumor xenograft models were performed when the tumors reached a volume of 100–300 mm^3.
(§2) [^177Lu]Lu-Ibu-DAB-PSMA (5 MBq, 100 µL) and [^177Lu]Lu-PSMA-617 (5 MBq, 100 µL) were diluted in saline containing 0.05% bovine serum albumin (BSA) to prevent adherence of the radioligands to the syringe. The radioligands were intravenously injected at a ligand amount of 0.05 nmol or 1.0 nmol per mouse. The number of mice per setting was commonly n = 3 and, in case of inconclusive results, additional mice up to a total of n = 6 were included. The mice were sacrificed at 4 h, 24 h, or 48 h post injection (p.i.) and selected tissues and organs were collected, weighed, and counted in a γ-counter (Supplementary Material). The data sets were analyzed for significance using a one-way ANOVA with Sidak’s multiple comparison post-test using the GraphPad Prism software (version 8). A p value of < 0.05 was considered statistically significant. Tumor-to-kidney and tumor-to-blood ratios were calculated for all investigated timepoints after injection of each radioligand.

[2] = test system: PC-3 PIP/flu tumor-bearing mice; test: Biodistribution in PC-3 PIP/flu tumor-bearing mice; format: in vivo, mouse; details: for AUCTu(0→48 h)-to-AUCKi(0→48 h) ratio: PC-3 PIP model (female mice); for AUCTu(0→48 h)-to-AUCKi(0→48 h) ratio / AUC0→48h, Kidneys / AUC0→48h, PC-3 PIP tumor: average ± SE, non-decay-corrected
Procedure: as §1, §2
Time-activity curves over the first 48 h after injection of the radioligands were determined for the PC-3 PIP tumor, the LNCaP tumor, and the kidneys of the corresponding xenograft model based on non-decay-corrected time-dependent biodistribution data obtained at 4 h, 24 h, and 48 h p.i. This allowed calculating the areas under the curve (AUC0→48 h) using the GraphPad Prism software (version 8) (Supplementary Material). The tumor-to-kidney AUC0→48 h ratios were calculated for both xenograft models.
3. Biodistribution studies
Purpose: The impact of the tumor mouse model and the injected ligand amount on the biodistribution of [177Lu]Lu-Ibu-DAB-PSMA and [177Lu]Lu-PSMA-617 was investigated.
Methods: The biodistribution studies were conducted with either PC-3 PIP/flu or LNCaP tumor-bearing mice injected with either 0.05 nmol or 1.0 nmol of radioligand per mouse, whereas the applied activity was kept constant for each setting. The results were decay-corrected and the values indicated as average ± SD obtained from each gr oup of mice (n = 3−6) and listed as percentage of injected activity per gra m tissue [% IA/g].
Results: The results are listed below (Table S1–S4) and described and discussed in the main article.
Table S1 Decay -corrected biodistribution data of [177Lu]Lu-Ibu-DAB-PSMA in PC-3 PIP/flu tumor-bearing mice injected with either 0. 05 nmol or 1.0 nmol per mouse. The values are indicated as average ± SD obtained from each group of mice (n = 3−6) and listed as percentage of injected activity per gram […]
Dissection time 4 h p.i. 24 h p.i. 48 h p.i. […]
a Data obtained with 1.0 nmol [177Lu]Lu-Ibu-DAB-PSMA were reproduced from Deberle et al. […]
radioligands in order to be able to judge the changes in activity uptake in the tumor and kidney s as a consequence of the tumor model and the injected amount of ligand, respectively.
Methods: T he time-activity curves over the first 48 h after injection were determined for the PC-3 PIP tumor, the LNCaP tumor as well as for the kidneys of each tumor mouse model based on non-decay - corrected time-dependent biodistribution data. For these calculations, the radioligand uptake in the tumors and the kidney s at t = 0 h p.i. was set to 0% IA/g.

[3] = PC-3 PIP model, 4 h p.i., 0.05 nmol
[4] = PC-3 PIP model, 24 h p.i., 0.05 nmol
[5] = PC-3 PIP model, 48 h p.i., 0.05 nmol

Procedure for LNCaP tumor cells: (§3) The cells were cultured in RPMI-1640 cell culture medium supplemented with 10% fetal calf serum, L-glutamine, and antibiotics. Puromycin (2 μg/mL) was used to maintain PSMA expression as previously reported [24]. […] The cells were cultured under standard cell culture conditions in RPMI-1640 medium supplemented with 10% fetal calf serum, L-glutamine, antibiotics, and pyruvate (1 mM).
(§4) In brief, PC-3 PIP and LNCaP tumor cells were seeded in 12-well plates (3 × 10^5 cells and 1 × 10^6 cells in 2 mL medium/well, respectively) and incubated overnight. Both PSMA radioligands were applied at variable molar concentrations (0.75–500 nM) but at a constant activity concentration of 37.5 kBq/mL. The tumor cells were incubated for 4 h followed by washing steps and detachment of the cells for counting in a γ-counter (Perkin Elmer, Wallac Wizard 1480). The studies were performed in three independent experiments of six replicates. Statistical analysis was performed using a two-way ANOVA with Tukey’s and Sidak’s multiple comparison post-test in Graph Pad Prism (version 8) for different concentrations of the same radioligand and for the two radioligands at the same concentration, respectively. A p value of < 0.05 was considered statistically significant.
(§5) Both tumor cell types were kept in a humidified atmosphere at 37 °C and 5% CO2. Routine cell culture
(§6) was performed twice a week using PBS/EDTA (2 mM) and trypsin for cell detachment.
(§7) internalization of the radioligands into PC-3 PIP and LNCaP tumor cells.
(§8) Methods: Uptake and internalization studies were performed with PC-3 PIP and LNCaP tumor cells
(§9) using variable concentrations of the respective ligand but constant activity concentrations. PC-3 PIP
(§10) and LNCaP cells were seeded in 12-well plates and incubated at 37 °C and 5% CO2 overnight.
(§11) Experiments with LNCaP cells were performed with poly -L-lysine-coated well plates to ensure better
(§12) cell adherence. The radioligand solution was diluted using saline containing 0.05% bovine serum
albumin (BSA) to avoid adherence to the vial. A defined volume of 25 µL (corresponding to 37.5 kBq)
of this solution was added to the cell monolayers after the addition of 975 µL cell culture medium
without supplements. The final molar concentrations in each well ranged from 0.75 nM to 500 nM.
After incubation of the cells for 4 h, several washing steps were performed using PBS for determination
Procedure for PC-3 PIP tumor cells: as §3, §4, §5, §6, §7, §8, §9, §10, §11, §12
albumin (BSA) to avoid adherence to the vial. A defined volume of 25 µL (corresponding to 37.5 kBq) […]

SMILES: CC(C)Cc1ccc(C(C)C(=O)NC(CCN)C(=O)NCCCCC(NC(=O)CN2CCN(CC(=O)O)CCN(CC(=O)O)CCN(CC(=O)O)CC2)C(=O)NCC2CCC(C(=O)NC(Cc3ccc4ccccc4c3)C(=O)NCCCCC(NC(=O)NC(CCC(=O)O)C(=O)O)C(=O)O)CC2)cc1 (centres unmarked) [[^177Lu]Lu-Ibu-DAB-PSMA, metal not drawn]
- Absolute amount of internalized radioligand (PC-3 PIP tumor cells; 0.00075 µM): 14–21 % of total added activity
- Internalized fraction (PC-3 PIP tumor cells; 4 h): 23–28 % of total uptake
- Cell uptake (PC-3 PIP tumor cells; 4 h, 0.5 µM): ≤ 2%
- Tumor accumulation in PC-3 PIP vs LNCaP tumor xenografts ([1]; 0.05 nmol): approximately fourfold
- Tumor uptake in PC-3 PIP vs LNCaP tumor xenografts ([1]; 1.0 nmol): 6 fold
- Kidney retention, low vs high amount of injected ligand ([1]; 4 h p.i., 0.05 nmol vs 1.0 nmol): about fourfold
- Kidney retention ([1]; 4 h p.i., high amount of injected ligand (1.0 nmol), range over both mouse models (PC-3 PIP data reproduced from earlier papers)): 16–19 % IA/g
- Kidney retention ([1]; 4 h p.i., low amount of injected ligand (0.05 nmol), range over both mouse models): 58–69 % IA/g
- Renal retention of activity ([1]; 24 h p.i., irrespective of the injected ligand amount, range over both mouse models): 5.5–6.8 % IA/g
- Absolute amount of internalized radioligand (LNCaP tumor cells; 0.00075 µM): 14–21 % of total added activity
- Internalized fraction (LNCaP tumor cells; 4 h): > 60 % of total uptake
- Cell uptake (LNCaP tumor cells; 4 h, 0.00075 µM): ~ 34%
- Cell uptake (LNCaP tumor cells; 4 h, 0.0075 µM): ~ 16%
- Cell uptake (LNCaP tumor cells; 4 h, 0.025 µM): ~ 6%
- Cell uptake (LNCaP tumor cells; 4 h, 0.5 µM): < 1%
- PC-3 PIP tumor uptake, low vs high ligand amount ([2]; 0.05 nmol vs 1.0 nmol, 24 h and 48 h p.i.): 1.5–1.6 fold
- AUCTu(0→48 h)-to-AUCKi(0→48 h) ratio ([2]; 0.05 nmol): 3.2 ± 0.5
- AUCTu(0→48 h)-to-AUCKi(0→48 h) ratio ([2]; 1.0 nmol): 5.6 ± 0.7
- AUC0→48h, Kidneys ([2]; PC-3 PIP model, 0.05 nmol): 945 ± 97 % IA/g*h
- AUC0→48h, PC-3 PIP tumor ([2]; PC-3 PIP model, 0.05 nmol): 3027 ± 206 % IA/g*h
- Increase of tumor-to-kidney AUC0→48 h ratio for high vs low molar amount of injected ligand ([2]; PC-3 PIP model, 1.0 nmol vs 0.05 nmol): 1.8 fold
- AUC0→48h, Kidneys ([2]; PC-3 PIP model, 1.0 nmol): 388 ± 23 % IA/g*h
- AUC0→48h, PC-3 PIP tumor ([2]; PC-3 PIP model, 1.0 nmol): 2166 ± 153 % IA/g*h
- Tissue distribution, Blood [2, 3]: 1.3 ± 0.3 % IA/g
- Tissue distribution, Bone [2, 3]: 0.29 ± 0.06 % IA/g
- Tissue distribution, Heart [2, 3]: 0.54 ± 0.12 % IA/g
- Tissue distribution, Intestines [2, 3]: 0.29 ± 0.05 % IA/g
- Tissue distribution, Kidneys [2, 3]: 69 ± 10 % IA/g
- Tissue distribution, Liver [2, 3]: 1.1 ± 0.1 % IA/g
- Tissue distribution, Lung [2, 3]: 1.3 ± 0.3 % IA/g
- Tissue distribution, Muscle [2, 3]: 0.22 ± 0.06 % IA/g
- Tissue distribution, PC-3 PIP tumor [2, 3]: 81 ± 4 % IA/g
- Tissue distribution, PC-3 flu tumor [2, 3]: 0.67 ± 0.10 % IA/g
- Tissue distribution, Salivary glands [2, 3]: 0.69 ± 0.18 % IA/g
- Tissue distribution, Spleen [2, 3]: 1.9 ± 0.4 % IA/g
- Tissue distribution, Stomach [2, 3]: 0.33 ± 0.09 % IA/g
- Tumor-to-blood ratio [2, 3]: 65 ± 20
- Tumor-to-kidney ratio [2, 3]: 1.2 ± 0.2
- Tumor-to-liver ratio [2, 3]: 74 ± 8
- Tissue distribution, Blood [2, 4]: 0.23 ± 0.03 % IA/g
- Tissue distribution, Bone [2, 4]: 0.13 ± 0.04 % IA/g
- Tissue distribution, Heart [2, 4]: 0.15 ± 0.02 % IA/g
- Tissue distribution, Intestines [2, 4]: 0.11 ± 0.03 % IA/g
- Tissue distribution, Kidneys [2, 4]: 5.5 ± 1.0 % IA/g
- Tissue distribution, Liver [2, 4]: 0.54 ± 0.13 % IA/g
- Tissue distribution, Lung [2, 4]: 0.27 ± 0.04 % IA/g
- Tissue distribution, Muscle [2, 4]: < 0.10 % IA/g
- Tissue distribution, PC-3 PIP tumor [2, 4]: 78 ± 14 % IA/g
- Tissue distribution, PC-3 flu tumor [2, 4]: 0.31 ± 0.05 % IA/g
- Tissue distribution, Salivary glands [2, 4]: 0.21 ± 0.02 % IA/g
- Tissue distribution, Spleen [2, 4]: 0.42 ± 0.09 % IA/g
- Tissue distribution, Stomach [2, 4]: 0.11 ± 0.02 % IA/g
- Tumor-to-blood ratio [2, 4]: 341 ± 48
- Tumor-to-kidney ratio [2, 4]: 14 ± 2
- Tumor-to-liver ratio [2, 4]: 149 ± 34
- Tissue distribution, Blood [2, 5]: 0.13 ± 0.03 % IA/g
- Tissue distribution, Bone [2, 5]: < 0.10 % IA/g
- Tissue distribution, Heart [2, 5]: < 0.10 % IA/g
- Tissue distribution, Intestines [2, 5]: < 0.10 % IA/g
- Tissue distribution, Kidneys [2, 5]: 2.3 ± 0.4 % IA/g
- Tissue distribution, Liver [2, 5]: 0.28 ± 0.03 % IA/g
- Tissue distribution, Lung [2, 5]: 0.18 ± 0.04 % IA/g
- Tissue distribution, Muscle [2, 5]: < 0.10 % IA/g
- Tissue distribution, PC-3 PIP tumor [2, 5]: 58 ± 9 % IA/g
- Tissue distribution, PC-3 flu tumor [2, 5]: 0.17 ± 0.01 % IA/g
- Tissue distribution, Salivary glands [2, 5]: 0.11 ± 0.02 % IA/g
- Tissue distribution, Spleen [2, 5]: 0.25 ± 0.05 % IA/g
- Tissue distribution, Stomach [2, 5]: 0.12 ± 0.08 % IA/g
- Tumor-to-blood ratio [2, 5]: 445 ± 51
- Tumor-to-kidney ratio [2, 5]: 26 ± 2
- Tumor-to-liver ratio [2, 5]: 205 ± 10
